Where a name gives a salt, the structure may show the parent alone.

For one assay, the system named is Acinetobacter baumannii ATCC17978. Nature of the assay: Antimicrobial susceptibility testing: 90% growth inhibitory concentration (IC90) determination, Iso-Sensitest broth. Type of assay: cell-based. The settings on record: 90% growth inhibitory concentration, Acinetobacter baumannii ATCC17978, Iso-Sensitest broth, OD 600 nm over 16 h; read-out: ATCC17978 IC90. In short, it runs like this:
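A. baumannii ATCC17978 grown in Iso-Sensitest broth across 10 compound concentrations at 35±2 °C.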
Regarding `Cc1cc(Nc2nccn3c(-c4ccc(OCC#N)c(F)c4F)cnc23)ccc1C(=O)N1CCN(C(=O)C2(F)CCNCC2)CC1` [Example 481, 2-[2,3-difluoro-4-[8-[4-[4-(4-fluoropiperidine-4-carbonyl)piperazine-1-carbonyl]-3-methylanilino]imidazo[1,2-a]pyrazin-3-yl]phenoxy]acetonitrile; for-mic acid], the IC90 amounted to 150 nM.

As to `COc1ccc(-c2cnc3c(Nc4ccc(C(=O)N5CCN(C(=O)N6CCO[C@@H](CN)C6)CC5)c(C)c4)nccn23)c(Cl)c1F` [Example 484, [4-[(2S)-2-(aminomethyl)morpholine-4-carbonyl]piperazin-1-yl]-[4-[[3-(2-chloro-3-fluoro-4-methoxyphenyl)imidazo[1,2-a]pyrazin-8-yl]amino]-2-methylphenyl]methanone; for-mic acid], the IC90 turned out to be 180 nM.

As for `COc1ccc(-c2cnc3c(Nc4ccc(C(=O)N5CCN(C(=O)C6CCNCC6)CC5)c(C)c4)nccn23)c(F)c1F` [Example 485, [4-[[3-(2,3-difluoro-4-methoxyphenyl)imidazo[1,2-a]pyrazin-8-yl]amino]-2-methylphenyl]-[4-(piperidine-4-carbonyl)piperazin-1-yl]methanone; hydrochloride], the IC90 is 190 nM.

With `Cc1cc(Nc2nccn3c(-c4ccc(OCC#N)c(F)c4F)cnc23)ccc1C(=O)N1CCC(C(=O)N2CCNC[C@H]2CO)CC1` [Example 492, 2-[2,3-difluoro-4-[8-[4-[4-[(2S)-2-(hydroxymethyl)piperazine-1-carbonyl]piperidine-1-carbonyl]-3-methylanilino]imidazo[1,2-a]pyrazin-3-yl]phenoxy]acetonitrile; for-mic acid], the IC90 worked out at 310 nM.

For `Cc1cc(Nc2nccn3c(-c4ccc(OCC#N)c(F)c4F)cnc23)ccc1C(=O)N1CCC(C(=O)N2CCNC[C@@H]2CO)CC1` [Example 497, 2-[2,3-difluoro-4-[8-[4-[4-[(2R)-2-(hydroxymethyl)piperazine-1-carbonyl]piperidine-1-carbonyl]-3-methylanilino]imidazo[1,2-a]pyrazin-3-yl]phenoxy]acetonitrile; for-mic acid], the IC90 is 330 nM.

The same assay, now with this note: Acinetobacter baumannii, ATCC17978, 16 h, read-out: ATCC17978 IC90, 90% growth inhibitory concentration, Acinetobacter baumannii ATCC17978, Iso-Sensitest broth, OD 600 nm over 16 h.
As to `COc1ccc(-c2cnc3c(Nc4ccc(C(=O)N5CCN(C(=O)C6(F)CCNCC6)CC5)c(C)c4)nccn23)c(F)c1F` [Example 477, [4-[[3-(2,3-difluoro-4-methoxyphenyl)imidazo[1,2-a]pyrazin-8-yl]amino]-2-methylphenyl]-[4-(4-fluoropiperidine-4-carbonyl)piperazin-1-yl]methanone; hydrochloride], the IC90 was found to be 120 nM.

Turning to `COc1ccc(-c2cnc3c(Nc4ccc(C(=O)N5CCN(C(=O)N[C@@H](C)CN)CC5)c(C)c4)nccn23)c(Cl)c1F` [Example 478, formic acid], the IC90 was determined as 130 nM.

On to `COc1ccc(-c2cnc3c(Nc4ccc(C(=O)N5CCN(C(=O)C6CCNCC6)CC5)c(C)c4)nccn23)c(Cl)c1F` [Example 479, [4-[[3-(2-chloro-3-fluoro-4-methoxyphenyl)imidazo[1,2-a]pyrazin-8-yl]amino]-2-methylphenyl]-[4-(piperidine-4-carbonyl)piperazin-1-yl]methanone; formic acid], for which the IC90 is 130 nM.

For the compound `COc1ccc(-c2cnc3c(Nc4ccc(C(=O)N5CCN(C(=O)N6CCNCC6)CC5)c(C)c4)nccn23)c(F)c1F` [Example 480, [4-[[3-(2,3-difluoro-4-methoxyphenyl)imidazo[1,2-a]pyrazin-8-yl]amino]-2-methylphenyl]-[4-(piperazine-1-carbonyl)piperazin-1-yl]methanone; formic acid], the IC90 came out at 140 nM.

As to `Cc1cc(Nc2nccn3c(-c4ccc(OC(F)F)cc4)cnc23)ccc1C(=O)N1CCN(C(=O)N[C@H](C)CN)CC1` [Example 482, N-[(2R)-1-aminopropan-2-yl]-4-[4-[[3-[4-(difluoromethoxy)phenyl]imi-dazo[1,2-a]pyrazin-8-yl]amino]-2-methylbenzoyl]piperazine-1-carboxamide; hydrochlroide], the IC90 was 170 nM.

Turning to `COc1ccc(-c2cnc3c(Nc4ccc(C(=O)N5CCN(C(=O)[C@@H]6CCNC6)CC5)c(C)c4)nccn23)cc1F` [Example 483, [4-[[3-(3-fluoro-4-methoxyphenyl)imidazo[1,2-a]pyrazin-8-yl]amino]-2-methylphenyl]-[4-[(3R)-pyrrolidine-3-carbonyl]piperazin-1-yl]methanone; hydrochloride], the IC90 was determined as 180 nM.

For `Cc1cc(Nc2nccn3c(-c4ccc(OC(F)F)cc4)cnc23)ccc1C(=O)N1CCN(C(=O)[C@@H]2CCNC2)CC1` [Example 486, [4-[[3-[4-(difluoromethoxy)phenyl]imi-dazo[1,2-a]pyrazin-8-yl]amino]-2-methylphenyl]-[4-[(3R)-pyrrolidine-3-carbonyl]piperazin-1-yl]methanone; hydrochloride], the IC90 is 190 nM.

Consider `Cc1cc(Nc2nccn3c(-c4ccc(OC(F)F)cc4)cnc23)ccc1C(=O)N1CCN(C(=O)C2C3CCC2CNC3)CC1` (stereo not drawn) [Example 488, [4-(3-azabicyclo[3.2.1]octane-8-carbonyl)piperazin-1-yl]-[4-[[3-[4-(difluoromethoxy)phenyl]imi-dazo[1,2-a]pyrazin-8-yl]amino]-2-methylphenyl]methanone; hy-drochloride], for which the IC90 came out at 240 nM.

Consider `Cc1cc(Nc2nccn3c(-c4ccc(OC(F)F)cc4)cnc23)ccc1C(=O)N1CCN(C(=O)C2(O)CCNCC2)CC1` [Example 490, [4-[[3-[4-(difluoromethoxy)phenyl]imi-dazo[1,2-a]pyrazin-8-yl]amino]-2-methylphenyl]-[4-(4-hydroxypiperidine-4-carbonyl)piperazin-1-yl]methanone; hydrochloride], for which the IC90 was found to be 280 nM.

Take `Cc1cc(Nc2nccn3c(-c4ccc(OC(F)F)cc4)cnc23)ccc1C(=O)N1CCN(C(=O)N[C@@H](C)CN)CC1` [Example 491, N-[(2S)-1-aminopropan-2-yl]-4-[4-[[3-[4-(difluoromethoxy)phenyl]imi-dazo[1,2-a]pyrazin-8-yl]amino]-2-methylbenzoyl]piperazine-1-carboxamide]: the IC90 was 300 nM.

As for `Cc1cc(Nc2nccn3c(-c4ccc(OC(F)F)cc4)cnc23)ccc1C(=O)N1CCN(C(=O)NCC2(O)CNC2)CC1` [Example 493, 4-[4-[[3-[4-(difluoromethoxy)phenyl]imi-dazo[1,2-a]pyrazin-8-yl]amino]-2-methylbenzoyl]-N-[(3-hydroxyazetidin-3-yl)methyl]piperazine-1-carboxamide; formic acid], the IC90 amounted to 310 nM.

On to `CCc1cc(Nc2nccn3c(-c4ccc(OC)c(F)c4F)cnc23)ccc1C(=O)N1CCN(C(=O)C2CCNCC2)CC1` [Example 494, [4-[[3-(2,3-difluoro-4-methoxyphenyl)imidazo[1,2-a]pyrazin-8-yl]amino]-2-ethylphenyl]-[4-(piperidine-4-carbonyl)piperazin-1-yl]methanone; hydrochloride], for which the IC90 turned out to be 320 nM.

Turning to `Cc1cc(Nc2nccn3c(-c4ccc(OC(F)F)cc4)cnc23)ccc1C(=O)N1CCN(C(=O)[C@H]2CCNC2)CC1` [Example 495, [4-[[3-[4-(difluoromethoxy)phenyl]imi-dazo[1,2-a]pyrazin-8-yl]amino]-2-methylphenyl]-[4-[(3S)-pyrrolidine-3-carbonyl]piperazin-1-yl]methanone; hydrochloride], the IC90 amounted to 320 nM.

For `Cc1cc(Nc2nccn3c(-c4ccc(OC(F)F)cc4)cnc23)ccc1C(=O)N1CCN(C(=O)N2CCO[C@H](CN)C2)CC1` [Example 496, [4-[(2R)-2-(aminomethyl)morpholine-4-carbonyl]piperazin-1-yl]-[4-[[3-[4-(difluoromethoxy)phenyl]imi-dazo[1,2-a]pyrazin-8-yl]amino]-2-methylphenyl]methanone; for-mic acid], the IC90 was 330 nM.

With `Cc1cc(Nc2nccn3c(-c4ccc(OCC#N)c(F)c4F)cnc23)ccc1C(=O)N1CCC(C(=O)OC[C@H]2CNCCN2)CC1` [Example 499, formic acid; [(2R)-piperazin-2-yl]methyl 1-[4-[[3-[4-(cyanomethoxy)-2,3-difluorophenyl]imidazo[1,2-a]pyrazin-8-yl]amino]-2-methylbenzoyl]piperidine-4-carboxylate], the IC90 came out at 360 nM.

On to `Cc1cc(Nc2nccn3c(-c4ccc(OC(F)F)cc4)cnc23)ccc1C(=O)N1CCN(C(=O)N2CCNC(CN)C2)CC1` (stereo not drawn) [Example 500, [4-[3-(aminomethyl)piperazine-1-carbonyl]piperazin-1-yl]-[4-[[3-[4-(difluoromethoxy)phenyl]imi-dazo[1,2-a]pyrazin-8-yl]amino]-2-methylphenyl]methanone; for-mic acid], for which the IC90 amounted to 390 nM.

In the case of `Cc1cc(Nc2nccn3c(-c4ccc(OC(F)F)cc4)cnc23)ccc1C(=O)N1CCN(C(=O)C2C=CNCC2)CC1` (stereo not drawn) [Example 501, [4-[[3-[4-(difluoromethoxy)phenyl]imi-dazo[1,2-a]pyrazin-8-yl]amino]-2-methylphenyl]-[4-(1,2,3,4-tetrahydropyridine-4-carbonyl)piperazin-1-yl]methanone; hydrochloride], the IC90 is 410 nM.

On to `Cc1cc(Nc2nccn3c(-c4ccc(OC(F)F)cc4)cnc23)ccc1C(=O)N1CCN(C(=O)C2CCNCC2F)CC1` (stereo not drawn) [Example 502, [4-[[3-[4-(difluoromethoxy)phenyl]imi-dazo[1,2-a]pyrazin-8-yl]amino]-2-methylphenyl]-[4-(3-fluoropiperidine-4-carbonyl)piperazin-1-yl]methanone; hydrochloride], for which the IC90 worked out at 470 nM.

The assay is the same for the next values; noted with them: read-out: ATCC17978 IC90; 90% growth inhibitory concentration, Acinetobacter baumannii ATCC17978, Iso-Sensitest broth, OD 600 nm over 16 h; hydrochloride.
As to `Cc1cc(Nc2nccn3c(-c4ccc(OC(F)F)cc4)cnc23)ccc1C(=O)N1CCN(C(=O)C2(F)CCNCC2)CC1` [Example 487, [4-[[3-[4-(difluoromethoxy)phenyl]imi-dazo[1,2-a]pyrazin-8-yl]amino]-2-methylphenyl]-[4-(4-fluoropiperidine-4-carbonyl)piperazin-1-yl]methanone; hydrochloride], the IC90 is 220 nM.

The values above are taken from patent US20230011869A1 (Hoffmann-La Roche Inc., priority 2018, published 2023).
